Test results taken from PubChem BioAssay AID256 (DTP/NCI, 2004).
Several values for one entry are separate records, joined by “and”; a condition that tells them apart may be missing. Equal values may be shown once. Toxic doses and inconclusive results are not listed.

Tested on: CD2F1 mice, L1210 leukemia ip, survival T/C
Experiment: NCI In Vivo Anticancer Drug Screen. Data for tumor model L1210 Leukemia (intraperitoneal) in CD2F1 (CDF1) mice
Conditions: higher = longer survival
Summary of the method: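 Transplantable tumor in mice; compound-treated vs vehicle-treated groups. Read-out = treated/control ratio of the measured endpoint.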

[1] = endpoint: mean survival time, dose: 200.0 mg/kg/injection, schedule: Q01DX009 (ip), vehicle: saline with Tween-80
[2] = endpoint: mean survival time, dose: 25.0 mg/kg/injection, schedule: Q04DX003 (ip), vehicle: saline with Tween-80
[3] = endpoint: mean survival time, dose: 50.0 mg/kg/injection, schedule: Q04DX003 (ip), vehicle: saline with Tween-80
[4] = endpoint: mean survival time, dose: 100.0 mg/kg/injection, schedule: Q04DX003 (ip), vehicle: saline with Tween-80
[5] = endpoint: mean survival time, dose: 100.0 mg/kg/injection, schedule: Q01DX001 (ip), vehicle: saline with Tween-80
[6] = endpoint: mean survival time, dose: 200.0 mg/kg/injection, schedule: Q01DX001 (ip), vehicle: saline with Tween-80
[7] = endpoint: mean survival time, dose: 400.0 mg/kg/injection, schedule: Q01DX001 (ip), vehicle: saline with Tween-80

With `CCCCNC(=S)NNC(=O)Cn1cnc2c1c(=O)n(C)c(=O)n2C` the T/C (endpoint: mean survival time, dose: 12.5 mg/kg/injection, schedule: Q01DX005 (ip), vehicle: distilled water + Tween-80) was 101 % of control, the T/C (endpoint: mean survival time, dose: 25.0 mg/kg/injection, schedule: Q01DX005 (ip), vehicle: distilled water + Tween-80) was 101 % of control and the T/C (endpoint: mean survival time, dose: 50.0 mg/kg/injection, schedule: Q01DX005 (ip), vehicle: distilled water + Tween-80) was 97 % of control. The T/C (endpoint: mean survival time, dose: 100.0 mg/kg/injection, schedule: Q01DX005 (ip), vehicle: distilled water + Tween-80) was 97 % of control and the T/C (endpoint: mean survival time, dose: 200.0 mg/kg/injection, schedule: Q01DX005 (ip), vehicle: distilled water + Tween-80) was 101 % of control.

`CCC(O)C(C)(C)[N+](=O)[O-]` (configuration not stated) was tested, and the T/C (endpoint: mean survival time, dose: 5.0 mg/kg/injection, schedule: Q01DX009 (ip), vehicle: saline) was 95 % of control, the T/C (endpoint: mean survival time, dose: 10.0 mg/kg/injection, schedule: Q01DX009 (ip), vehicle: saline) was 98 % of control and the T/C (endpoint: mean survival time, dose: 20.0 mg/kg/injection, schedule: Q01DX009 (ip), vehicle: saline) was 98 % of control.

For `Cc1cccc(/C=N\OCc2ccccc2)n1`, the T/C (endpoint: mean survival time, dose: 100.0 mg/kg/injection, schedule: Q01DX009 (ip), vehicle: saline with Tween-80) was 98 % of control and the T/C [1] was 113 % of control.

With `CC1CCC2NCCCC2C1` (configuration not stated) the T/C (endpoint: mean survival time, dose: 5.0 mg/kg/injection, schedule: Q04DX002 (ip), vehicle: saline) was 98 % of control, the T/C (endpoint: mean survival time, dose: 10.0 mg/kg/injection, schedule: Q04DX002 (ip), vehicle: saline) was 95 % of control and the T/C (endpoint: mean survival time, dose: 20.0 mg/kg/injection, schedule: Q04DX002 (ip), vehicle: saline) was 98 % of control.

In the case of `COc1ccc(-n2cnc3c(cnn3C3OC(CO)C(O)C3O)c2=O)cc1` (configuration not stated), the T/C (endpoint: median survival time, dose: 12.5 mg/kg/injection, schedule: Q01DX005 (ip), vehicle: saline) is reported as 105 % of control, the T/C (endpoint: median survival time, dose: 25.0 mg/kg/injection, schedule: Q01DX005 (ip), vehicle: saline) is reported as 102 % of control and the T/C (endpoint: median survival time, dose: 50.0 mg/kg/injection, schedule: Q01DX005 (ip), vehicle: saline) is reported as 102 % of control. The T/C (endpoint: median survival time, dose: 100.0 mg/kg/injection, schedule: Q01DX005 (ip), vehicle: saline) was 105 % of control and the T/C (endpoint: median survival time, dose: 200.0 mg/kg/injection, schedule: Q01DX005 (ip), vehicle: saline) was 106 % of control.

For `CC(C)(C)/C=N/Nc1ccc([N+](=O)[O-])cc1[N+](=O)[O-]`, the T/C (endpoint: mean survival time, dose: 100.0 mg/kg/injection, schedule: Q04DX003 (ip), vehicle: acetone) was 97 % of control, the T/C (endpoint: mean survival time, dose: 200.0 mg/kg/injection, schedule: Q04DX003 (ip), vehicle: acetone) was 101 % of control and the T/C (endpoint: mean survival time, dose: 400.0 mg/kg/injection, schedule: Q04DX003 (ip), vehicle: acetone) was 97 % of control.

`CCOC(=O)C(C)(C)Oc1nn(Cc2ccccc2)c2ccccc12` was tested, and the T/C [2] was 104 % of control, the T/C [3] was 102 % of control and the T/C [4] was 102 % of control.

For `CCCCC(CC)COc1ccc(N=C(N)N=C(N)N)cc1` (configuration not stated), the T/C (endpoint: mean survival time, dose: 25.0 mg/kg/injection, schedule: Q04DX002 (ip), vehicle: saline with Tween-80) was 98 % of control and the T/C (endpoint: mean survival time, dose: 50.0 mg/kg/injection, schedule: Q04DX002 (ip), vehicle: saline with Tween-80) was 102 % of control.

For `[Cl][Pt+2][Cl].[NH-]C1CCCC1.[NH2-]`, the T/C (endpoint: mean survival time, dose: 0.39 mg/kg/injection, schedule: Q04DX003 (ip), vehicle: water) was 106 % of control, the T/C (endpoint: mean survival time, dose: 0.78 mg/kg/injection, schedule: Q04DX003 (ip), vehicle: water) was 122 % of control and the T/C (endpoint: mean survival time, dose: 3.12 mg/kg/injection, schedule: Q04DX003 (ip), vehicle: saline with Tween-80) was 182 % of control. The T/C (endpoint: mean survival time, dose: 3.13 mg/kg/injection, schedule: Q04DX003 (ip), vehicle: water) was 156 % of control.

`CCOC(=O)COc1c(C(C)(C)C)cc([N+](=O)[O-])c(C)c1[N+](=O)[O-]` was tested, and the T/C [5] was 105 % of control, the T/C [6] was 111 % of control and the T/C [7] was 96 % of control.

With `CCOC(=O)C(CC(C)C)NC(=O)C(N)Cc1ccc(N(CCCl)CCCl)cc1` (configuration not stated) the T/C (endpoint: mean survival time, dose: 1.25 mg/kg/injection, schedule: Q01DX009 (ip), vehicle: water) was 106 % of control, the T/C (endpoint: mean survival time, dose: 2.5 mg/kg/injection, schedule: Q01DX009 (ip), vehicle: water) was 115 % of control and 119 % of control and the T/C (endpoint: mean survival time, dose: 10.0 mg/kg/injection, schedule: Q01DX009 (ip), vehicle: water) was 169 % of control. For the same molecule, the T/C (endpoint: mean survival time, dose: 20.0 mg/kg/injection, schedule: Q01DX009 (ip), vehicle: water) was 114 % of control, the T/C (endpoint: median survival time, dose: 3.6 mg/kg/injection, schedule: Q01DX009 (ip), vehicle: water) was 118 % of control and the T/C (endpoint: median survival time, dose: 16.67 mg/kg/injection, schedule: Q01DX009 (ip), vehicle: water) was 175 % of control. For the same molecule, the T/C (endpoint: median survival time, dose: 27.78 mg/kg/injection, schedule: Q01DX009 (ip), vehicle: water) was 118 % of control.

For `O=C(O)Cc1ccc(Cl)cc1[N+](=O)[O-]`, the T/C (endpoint: mean survival time, dose: 100.0 mg/kg/injection, schedule: Q01DX001 (ip), vehicle: other) was 113 % of control, the T/C (endpoint: mean survival time, dose: 200.0 mg/kg/injection, schedule: Q01DX001 (ip), vehicle: other) was 107 % of control and the T/C (endpoint: mean survival time, dose: 400.0 mg/kg/injection, schedule: Q01DX001 (ip), vehicle: other) was 98 % of control.

For `CC(=O)Nc1ccc(OC(C)=O)cc1`, the T/C [2] was 97 % of control, the T/C [3] was 97 % of control and the T/C [4] was 101 % of control.

For `Cn1c(N)c(N)c(=O)n(C)c1=O`, the T/C (endpoint: mean survival time, dose: 100.0 mg/kg/injection, schedule: Q04DX002 (ip), vehicle: saline) was 109 % of control, the T/C (endpoint: mean survival time, dose: 200.0 mg/kg/injection, schedule: Q04DX002 (ip), vehicle: saline) was 102 % of control and the T/C (endpoint: mean survival time, dose: 400.0 mg/kg/injection, schedule: Q04DX002 (ip), vehicle: saline) was 109 % of control.

`Cc1c(C)c2c(c(C)c1OC(=O)CCC(=O)O)CCC(C)(CCCC(C)CCCC(C)CCCC(C)C)O2` (configuration not stated) was tested, and the T/C [4] was 102 % of control, the T/C (endpoint: mean survival time, dose: 200.0 mg/kg/injection, schedule: Q04DX003 (ip), vehicle: saline with Tween-80) was 98 % of control and the T/C (endpoint: mean survival time, dose: 400.0 mg/kg/injection, schedule: Q04DX003 (ip), vehicle: saline with Tween-80) was 94 % of control.

With `CNC(=O)Oc1cccc(NC(=O)OCCC(C)C)c1` the T/C [5] was 96 % of control, the T/C [6] was 93 % of control and the T/C [7] was 96 % of control.

In the case of `CS(C)=O.[Cl-].[Cl-].[NH-]CC(O)CN(Cc1ccccc1)CC(O)CN.[Pt]` (configuration not stated), the T/C (endpoint: median survival time, dose: 10.0 mg/kg/injection, schedule: Q04DX003 (ip), vehicle: saline) is reported as 104 % of control, the T/C (endpoint: median survival time, dose: 20.0 mg/kg/injection, schedule: Q04DX003 (ip), vehicle: saline) is reported as 109 % of control and the T/C (endpoint: median survival time, dose: 40.0 mg/kg/injection, schedule: Q04DX003 (ip), vehicle: saline) is reported as 110 % of control. The T/C (endpoint: median survival time, dose: 80.0 mg/kg/injection, schedule: Q04DX003 (ip), vehicle: saline) was 86 % of control.

With `O=C(O)c1ccccc1C(=O)c1ccc(CBr)cc1` the T/C (endpoint: mean survival time, dose: 6.25 mg/kg/injection, schedule: Q04DX003 (ip), vehicle: saline with Tween-80) was 93 % of control, the T/C (endpoint: mean survival time, dose: 12.5 mg/kg/injection, schedule: Q04DX003 (ip), vehicle: saline with Tween-80) was 101 % of control and the T/C [2] was 101 % of control.

For `O=C(O)O`, the T/C (endpoint: mean survival time, dose: 200.0 mg/kg/injection, schedule: Q01DX001 (ip), vehicle: saline) was 105 % of control, the T/C [1] was 107 % of control and the T/C (endpoint: mean survival time, dose: 400.0 mg/kg/injection, schedule: Q01DX001 (ip), vehicle: saline) was 100 % of control.

In the case of `CC(=O)OC1C(CO)OC2C1Oc1nc(=N)c(F)cn12` (configuration not stated), the T/C (endpoint: mean survival time, dose: 3.13 mg/kg/injection, schedule: Q01DX009 (ip), vehicle: saline) is reported as 101 % of control, the T/C (endpoint: mean survival time, dose: 6.25 mg/kg/injection, schedule: Q01DX009 (ip), vehicle: saline) is reported as 106 % of control and the T/C (endpoint: mean survival time, dose: 12.5 mg/kg/injection, schedule: Q01DX009 (ip), vehicle: saline) is reported as 110 % of control. For the same molecule, the T/C (endpoint: mean survival time, dose: 25.0 mg/kg/injection, schedule: Q01DX009 (ip), vehicle: saline) was 116 % of control.

`O=C(Cc1ccccc1)C(O)c1ccccc1` (configuration not stated) was tested, and the T/C [5] was 86 % of control, the T/C [6] was 92 % of control and the T/C [7] was 87 % of control.
